Test results reported in ChEMBL document CHEMBL1124111, “Studies directed toward ascertaining the active conformation of 1,4-dihydropyridine calcium entry blockers” (J Med Chem, 1988).

Key:
[1] = target: Voltage-dependent L-type calcium channel (Cavia porcellus); experiment: Dissociation constant for inhibition of [3H]nitrendipine binding to guinea pig myocardial membranes; conditions: read-out: Kd1
Oryctolagus cuniculus = organism: Oryctolagus cuniculus; experiment: Compound was tested for ability to relax potassium-contracted rabbit aorta smooth muscle; type: functional
[2] = test system: Voltage-dependent L-type calcium channel (Cavia porcellus); experiment: Bmax1 from dihydropyridine receptor binding assay in guinea pig myocardial membranes
[3] = target: Voltage-dependent L-type calcium channel (Cavia porcellus); experiment: Dissociation constant for inhibition of [3H]nitrendipine binding to guinea pig myocardial membranes; conditions: read-out: Kd2
[4] = test system: Voltage-dependent L-type calcium channel (Cavia porcellus); experiment: Bmax2 from dihydropyridine receptor binding assay in guinea pig myocardial membranes
[5] = target: Voltage-dependent L-type calcium channel (Cavia porcellus); experiment: Dissociation constant for inhibition of [3H]nitrendipine binding to guinea pig myocardial membranes; conditions: read-out: Kd2; remark: listed apart in the source

Compound | Kd [1] [nM] | IC50 (Oryctolagus cuniculus) [nM] | Bmax1 [2] [%] | Kd [3] [nM] | Bmax2 [4] [%] | Kd [5] [nM]
COC(=O)C1=C(C)N=C(C)/C(=C(\O)OC)C1c1cccc(C#N)c1 (stereo unspecified) | 2.15 | 11.1 | 83 | – | 17 | 152
COC(=O)C1=C(C)N=C(C)/C(=C(\O)OC)C1c1ccccc1Cl (stereo unspecified) | 0.006 | 3 | 21 | – | 79 | 1
COC(=O)C1=C(C)NC(C)=C(C(=O)OC)C1c1ccccc1[N+](=O)[O-] [NIFEDIPINE] | – | 0.5 | – | – | – | –

Now from value to compound:

Kd [1] [nM] | IC50 (Oryctolagus cuniculus) [nM] | Bmax1 [2] [%] | Kd [3] [nM] | Bmax2 [4] [%] | Kd [5] [nM] | Compound
1.25 | 185 | 8 | 107 | 92 | – | COC(=O)C1=C(C)N=C(C)/C(=C(\O)OC)C1c1ccc([N+](=O)[O-])cc1Cl (stereo unspecified)
0.23 | 1 | 79 | – | 21 | 85 | COC(=O)C1=C(C)N=C(C)/C(=C(\O)OC)C1c1cccc([N+](=O)[O-])c1Cl (stereo unspecified)
0.95 | 13.6 | 49 | – | 51 | 74.4 | COC(=O)C1=C(C)N=C(C)/C(=C(\O)OC)C1c1cc([N+](=O)[O-])ccc1Cl (stereo unspecified)
